In ChEMBL document CHEMBL3885861, “Open TG-GATES”:

Species on record: Rattus norvegicus
Test: Open TG-GATES - Regimen: Daily Repeat
Type: toxicity, organism-based, Sprague-Dawley
Set-up: regimen Daily Repeat, gender Male, age 6 weeks
Details: in vivo, po, 40 mg/kg, route gavage, dose level Low; for APTT / Bas / Eos / Fbg / Hb / Ht / Lym / MCH / MCHC / MCV / Mono / Neu / PT / Plat / RBC / Ret / WBC: tissue Blood; for KIDNEY_L / KIDNEY_R / KIDNEY_TOTAL: tissue Kidney; for LIVER: tissue Liver; for A/G / ALP / ALT / AST / BUN / CRE / Ca / Cl / DBIL / GLC / IP / K / LDH / Na / PL / RALB / TBIL / TC / TG / TP / gamma-GTP: tissue Plasma

Cc1cccc(C)c1OCC(C)N (configuration not stated) [MEXILETINE]
TERMINAL_BW (72 h, time 3 day): 247.9 g | APTT (72 h, time 3 day): 21.7 s | Bas (72 h, time 3 day): 0% | Eos (72 h, time 3 day): 0.8% | Fbg (72 h, time 3 day): 327.2 mg/dL | Hb (72 h, time 3 day): 13 g/dL | Ht (72 h, time 3 day): 39.6% | Lym (72 h, time 3 day): 79.8% | MCH (72 h, time 3 day): 20.3 pg | MCHC (72 h, time 3 day): 32.7% | MCV (72 h, time 3 day): 62.1 fL | Mono (72 h, time 3 day): 3.2% | Neu (72 h, time 3 day): 15.6% | PT (72 h, time 3 day): 15.2 s | Plat (72 h, time 3 day): 118.3 x10_4/uL | RBC (72 h, time 3 day): 638.4 x10_4/ul | Ret (72 h, time 3 day): 6.1% | WBC (72 h, time 3 day): 92 x10_2/uL | KIDNEY_L (72 h, time 3 day): 1.1 g | KIDNEY_R (72 h, time 3 day): 1.1 g | KIDNEY_TOTAL (72 h, time 3 day): 2.1 g | LIVER (72 h, time 3 day): 12.1 g | A/G (72 h, time 3 day): 1.3 | ALP (72 h, time 3 day): 1808.2 IU/L | ALT (72 h, time 3 day): 47.4 IU/L | AST (72 h, time 3 day): 72.6 IU/L | BUN (72 h, time 3 day): 16.2 mg/dL | CRE (72 h, time 3 day): 0.1 mg/dL | Ca (72 h, time 3 day): 10.5 mg/dL | Cl (72 h, time 3 day): 105.2 meq/L | DBIL (72 h, time 3 day): 0 mg/dL | GLC (72 h, time 3 day): 192.4 mg/dL | IP (72 h, time 3 day): 7.7 mg/dL | K (72 h, time 3 day): 4.4 meq/L | LDH (72 h, time 3 day): 147.4 IU/L | Na (72 h, time 3 day): 141 meq/L | PL (72 h, time 3 day): 151 mg/dL | RALB (72 h, time 3 day): 3.2 g/dL | TBIL (72 h, time 3 day): 0.006 mg/dL | TC (72 h, time 3 day): 77.6 mg/dL | TG (72 h, time 3 day): 133.8 mg/dL | TP (72 h, time 3 day): 5.6 g/dL | gamma-GTP (72 h, time 3 day): 1.6 IU/L | TERMINAL_BW ([…], time 7 day): 275.8 g | TERMINAL_BW ([…], time 14 day): 338.1 g | TERMINAL_BW ([…], time 28 day): 397.8 g | APTT ([…], time 7 day): 22.5 s | Bas ([…], time 7 day): 0% | Eos ([…], time 7 day): 1% | Fbg ([…], time 7 day): 317.4 mg/dL | Hb ([…], time 7 day): 13 g/dL | Ht ([…], time 7 day): 39.9% | Lym ([…], time 7 day): 81% | MCH ([…], time 7 day): 20.4 pg | MCHC ([…], time 7 day): 32.5% | MCV ([…], time 7 day): 62.8 fL | Mono ([…], time 7 day): 2.4% | Neu ([…], time 7 day): 15% | PT ([…], time 7 day): 16 s | Plat ([…], time 7 day): 107.4 x10_4/uL | RBC ([…], time 7 day): 634.4 x10_4/ul | Ret ([…], time 7 day): 6.2% | WBC ([…], time 7 day): 105.8 x10_2/uL | APTT ([…], time 14 day): 20.9 s | Bas ([…], time 14 day): 0% | Eos ([…], time 14 day): 0.4% | Fbg ([…], time 14 day): 302.8 mg/dL | Hb ([…], time 14 day): 13.1 g/dL | Ht ([…], time 14 day): 40.8% | Lym ([…], time 14 day): 80.4% | MCH ([…], time 14 day): 20.6 pg | MCHC ([…], time 14 day): 32.1% | MCV ([…], time 14 day): 64.2 fL | Mono ([…], time 14 day): 2.2% | Neu ([…], time 14 day): 16% | PT ([…], time 14 day): 15.9 s | Plat ([…], time 14 day): 119 x10_4/uL | RBC ([…], time 14 day): 634.2 x10_4/ul | Ret ([…], time 14 day): 7.8% | WBC ([…], time 14 day): 92.2 x10_2/uL | APTT ([…], time 28 day): 22.8 s | Bas ([…], time 28 day): 0% | Eos ([…], time 28 day): 1% | Fbg ([…], time 28 day): 323.4 mg/dL | Hb ([…], time 28 day): 14.9 g/dL | Ht ([…], time 28 day): 43.2% | Lym ([…], time 28 day): 79.8% | MCH ([…], time 28 day): 19.4 pg | MCHC ([…], time 28 day): 34.5% | MCV ([…], time 28 day): 56.3 fL | Mono ([…], time 28 day): 2.4% | Neu ([…], time 28 day): 15.6% | PT ([…], time 28 day): 15.9 s | Plat ([…], time 28 day): 101.8 x10_4/uL | RBC ([…], time 28 day): 766.6 x10_4/ul | Ret ([…], time 28 day): 2.8% | WBC ([…], time 28 day): 104.7 x10_2/uL | KIDNEY_L ([…], time 7 day): 1.1 g | KIDNEY_R ([…], time 7 day): 1.1 g | KIDNEY_TOTAL ([…], time 7 day): 2.2 g | KIDNEY_L ([…], time 14 day): 1.3 g | KIDNEY_R ([…], time 14 day): 1.3 g | KIDNEY_TOTAL ([…], time 14 day): 2.6 g | KIDNEY_L ([…], time 28 day): 1.4 g | KIDNEY_R ([…], time 28 day): 1.4 g | KIDNEY_TOTAL ([…], time 28 day): 2.9 g | LIVER ([…], time 7 day): 12.7 g | LIVER ([…], time 14 day): 15.2 g | LIVER ([…], time 28 day): 17.1 g | A/G ([…], time 7 day): 1.2 | ALP ([…], time 7 day): 1628.6 IU/L | ALT ([…], time 7 day): 47.8 IU/L | AST ([…], time 7 day): 72.4 IU/L | BUN ([…], time 7 day): 19.6 mg/dL | CRE ([…], time 7 day): 0.2 mg/dL | Ca ([…], time 7 day): 10.6 mg/dL | Cl ([…], time 7 day): 105.6 meq/L | DBIL ([…], time 7 day): 0 mg/dL | GLC ([…], time 7 day): 190 mg/dL | IP ([…], time 7 day): 7.2 mg/dL | K ([…], time 7 day): 4 meq/L | LDH ([…], time 7 day): 162.8 IU/L | Na ([…], time 7 day): 143.2 meq/L | PL ([…], time 7 day): 145.2 mg/dL | RALB ([…], time 7 day): 3 g/dL | TBIL ([…], time 7 day): 0.002 mg/dL | TC ([…], time 7 day): 82 mg/dL | TG ([…], time 7 day): 108.8 mg/dL | TP ([…], time 7 day): 5.6 g/dL | gamma-GTP ([…], time 7 day): 1.8 IU/L | A/G ([…], time 14 day): 1.1 | ALP ([…], time 14 day): 1520 IU/L | ALT ([…], time 14 day): 43.4 IU/L | AST ([…], time 14 day): 69.6 IU/L | BUN ([…], time 14 day): 18.6 mg/dL | CRE ([…], time 14 day): 0.2 mg/dL | Ca ([…], time 14 day): 10.5 mg/dL | Cl ([…], time 14 day): 106.8 meq/L | DBIL ([…], time 14 day): 0 mg/dL | GLC ([…], time 14 day): 196.8 mg/dL | IP ([…], time 14 day): 6.8 mg/dL | K ([…], time 14 day): 4.2 meq/L | LDH ([…], time 14 day): 154.2 IU/L | Na ([…], time 14 day): 141.4 meq/L | PL ([…], time 14 day): 152.8 mg/dL | RALB ([…], time 14 day): 3 g/dL | TBIL ([…], time 14 day): 0.002 mg/dL | TC ([…], time 14 day): 80.4 mg/dL | TG ([…], time 14 day): 136.8 mg/dL | TP ([…], time 14 day): 5.9 g/dL | gamma-GTP ([…], time 14 day): 2.4 IU/L | A/G ([…], time 28 day): 1 | ALP ([…], time 28 day): 1106 IU/L | ALT ([…], time 28 day): 37.8 IU/L | AST ([…], time 28 day): 62.4 IU/L | BUN ([…], time 28 day): 17.6 mg/dL | CRE ([…], time 28 day): 0.2 mg/dL | Ca ([…], time 28 day): 10.5 mg/dL | Cl ([…], time 28 day): 106 meq/L | DBIL ([…], time 28 day): 0 mg/dL | GLC ([…], time 28 day): 197.2 mg/dL | IP ([…], time 28 day): 6.5 mg/dL | K ([…], time 28 day): 3.8 meq/L | LDH ([…], time 28 day): 154.6 IU/L | Na ([…], time 28 day): 142.8 meq/L | PL ([…], time 28 day): 146.4 mg/dL | RALB ([…], time 28 day): 3.1 g/dL | TBIL ([…], time 28 day): 0.014 mg/dL | TC ([…], time 28 day): 67.8 mg/dL | TG ([…], time 28 day): 174.2 mg/dL | TP ([…], time 28 day): 6.1 g/dL | gamma-GTP ([…], time 28 day): 2.4 IU/L
